This note sets out measurements from PubChem BioAssay (NCI).

Common to all, as to assay: growth of human tumour cells (NCI), 48 h
Assay [1] concerns CAKI-1 renal.
For assay [2], the system named is OVCAR-8 ovarian.
Assay [3] relates to U251 CNS.
Assay [4] concerns UACC-257 melanoma.
Assay [5] relates to NCI-H460 lung.
The subject of assay [6] is COLO 205 colon.
For assay [7], the system named is A549 NSCLC.
For assay [8], the system named is NCI-H522 lung.
Assay [9] concerns A498 renal.
Assay [10] concerns RXF 393 renal.

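In this assay, cells in 96-well plates receive the compound at five concentrations for 48 hours. Endpoints are linearly interpolated between the surrounding concentrations. GI50 marks 50% less growth. TGI: concentration producing complete growth inhibition.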

`CC1=C(C(=O)Nc2cccc(C(F)(F)F)c2)C(c2ccc(O)cc2)C(C(=O)Nc2cccc(C(F)(F)F)c2)=C(C)N1`: the TGI in assay [1] was determined as 59.3 µM; in assay [2], 76.6 µM; in [3] it was 43.6 µM; in assay [4] it was 36 µM; in assay [5], 43.1 µM; in [6], 27 µM. The TGI in [7] is > 100 µM; in assay [8] it was 34.4 µM; in [9], 71.9 µM; in assay [10], 36.9 µM.
In the case of `C=CCN1C(=O)/C(=c2\sc3n(c2=O)C2C(NN=3)N(CC)C(=O)N2CC)c2ccccc21` (stereo not drawn), the GI50 in [1] is 0.474 µM; in [2] it was 1.12 µM; in assay [3] it was 0.726 µM; in assay [5] it was 0.413 µM; in assay [6], 0.549 µM; in [7] it was 1.21 µM. Moreover, the figures for the GI50 in assay [8], in [9] and in assay [10] were 0.379 µM, 0.246 µM and 0.328 µM, respectively. In addition, the TGI in [1] was > 100 µM; in assay [2] it was > 100 µM; in assay [3], > 33.5 µM; in assay [4], > 100 µM; in assay [5], > 100 µM; in assay [6], > 20.4 µM. Moreover, the TGI in assay [7] is > 100 µM; in assay [9], 1.17 µM; in [10], 1.94 µM.
Take `CCOc1ccc(Cc2nccc3cc(OCC)c(OCC)cc23)cc1OCC`: the GI50 in assay [1] was 4.53 µM; in assay [2] it was 5.33 µM; in [3] it was 7.73 µM; in assay [4], 3.34 µM; in assay [5], 3.2 µM; in [6], 4.28 µM. Moreover, the GI50 in assay [7] was 5.7 µM; in assay [8] it was 2.09 µM; in [9], 0.763 µM; in assay [10], 10.4 µM. The TGI stood at 41 µM in assay [1]; 31.1 µM in assay [2]; 21.9 µM in assay [3]; 14.6 µM in assay [4]; 21.8 µM in assay [5]; 19 µM in assay [6]. Further, the TGI came out at 27.8 µM in assay [7], 15 µM in assay [8], 19.9 µM in assay [9] and 23.1 µM in assay [10].
Regarding `NC(=O)c1ccccc1NC(=O)C(=O)C(C(=O)c1ccc2ccccc2c1)C1OC(=O)c2ccccc21` (stereo not drawn), the TGI was 33 µM in [1]; 25.2 µM in [3]; 37.4 µM in assay [4]; > 100 µM in [5]; 24.6 µM in assay [6]; 50.5 µM in assay [7]. The TGI in [8] was 43.2 µM; in assay [9], > 100 µM; in [10], 16.8 µM.
As to `O=C1C2=C(C(=O)c3c(O)ccc(O)c31)N(c1ccc(N3CCOCC3)nc1)Cc1ccccc1O2`, the GI50 was 0.35 µM in assay [2]; 0.603 µM in assay [3]; 0.556 µM in assay [4]; 1.31 µM in assay [5]; 0.137 µM in [6]; 2.88 µM in assay [7]. The GI50 is 0.0581 µM in assay [8], 2.3 µM in assay [9] and 0.148 µM in assay [10]. Further, the TGI is 12.3 µM in [2]; 2.21 µM in assay [3]; 1.52 µM in assay [4]; 4.06 µM in assay [5]; 0.318 µM in assay [6]; 9.11 µM in assay [7]. In addition, the TGI in assay [8] was found to be 0.194 µM; in assay [9], 4.74 µM; in assay [10], 0.308 µM.
Consider `COc1cc(CNC(=O)/C=C/C=C/c2ccc3c(c2)OCO3)ccc1OCc1cn(-c2ccc(Cl)c(Cl)c2)nn1`, for which the GI50 in assay [1] was 1.62 µM; in assay [2], 2.35 µM; in [3], 1.65 µM; in [4], 1.8 µM; in assay [5], 0.445 µM; in assay [7], 0.999 µM. The figures for the GI50 in assay [8], in assay [9] and in assay [10] were 1.81 µM, 1.57 µM and 1.69 µM, respectively. Moreover, the TGI in [1] was 3.57 µM; in assay [2] it was 8.15 µM; in assay [3], 3.22 µM; in assay [4], 3.98 µM; in [5], 1.83 µM; in [7] it was 4.18 µM. The TGI in assay [8] is 5.11 µM; in assay [9] it was 3.22 µM; in assay [10] it was 3.75 µM.
For `COC(=O)CCC(NC(=S)N/N=C(\C)c1ccccn1)C(=O)OC` (stereo not drawn), the TGI in assay [2], in [3], in assay [4], in assay [5], in assay [6] and in [7] was > 100 µM throughout. Moreover, the TGI in assay [8], in [9] and in assay [10] was > 100 µM each time.
As to `Cn1cc(-c2csc(-c3c[nH]c4ncccc34)n2)c2cc(Br)cnc21`, the GI50 in assay [1] is 1.56 µM; in assay [2], 3.72 µM; in [3], 2.7 µM; in assay [5], 2.98 µM; in assay [8], 4.86 µM; in [9], 10.9 µM. Also, in [10], the GI50 is 2.05 µM. In addition, the TGI in [1], in assay [2], in assay [3], in assay [5], in [8] and in assay [9] was > 100 µM in each case. For the same compound, in [10], the TGI is 8.63 µM.
In the case of `Cc1ccc(/C=C(\C#N)n2nnc3cc(Cl)c(Cl)cc32)cc1`, the GI50 was 1.09 µM in assay [1]; 2.87 µM in assay [2]; 2.95 µM in [4]; 2.43 µM in [5]; 2.62 µM in assay [6]; 3.58 µM in assay [7]. Further, the GI50 in assay [8] was 2.72 µM; in assay [9], 1.91 µM; in assay [10], 2.01 µM. For the same compound, the TGI is 13.8 µM in assay [1]; > 100 µM in [2]; > 100 µM in [4]; 6.52 µM in [5]; 7.16 µM in assay [6]; > 100 µM in assay [7]. Moreover, the TGI in assay [8] amounted to 14.9 µM; in assay [9], 4.59 µM; in assay [10], 5.69 µM.
As to `O=C(CC(=O)N1N=C(n2ccc3ccccc32)CC1c1ccccc1)Nc1cccc(Cl)c1` (stereo not drawn), the TGI in assay [2], in assay [3], in assay [4], in assay [5], in assay [6] and in assay [7] was > 100 µM each time. For the same compound, the TGI in assay [8], in assay [9] and in assay [10] was > 100 µM in each case.
